Entries after “also recorded” stand apart in the source; their conditions may differ. Where two headings read alike, the source gives them in different places. Where no end group is shown, it is not given here. PEG = not defined here; ADR = adriamycin
Tests used:
mouse CTLL-2 cells = experiment: In vitro cytotoxic activity against mouse CTLL-2 cells (MTS cell viability assay)
Procedure: CTLL-2 cells express the IL-2 high affinity receptor. […] Thereafter, cell viability was assessed by a colorimetric method using the tetrazolium compound MTS (3-(4,5-dimethylthiazol-2-yl)-5-(3-carboxymethoxyphenyl)-2-(4-sulfophenyl)-2H-tetrazolium, inner salt) and an electron coupling reagent, PMS (phenazine methosulfate). A. J. Cory et al., 3 Cancer Commun. […] MTS is bioreduced by living cells into a soluble formazan product. The absorbence of the formazan at 490 nm can be measured directly from 96 well assay plates without additional processing. The quantity of formazan product as measured by the absorbence at 490 nm is directly proportional to the number of living cells in culture. Reagents for the MTS assay were obtained from Promega Corp. (Madison, Wis.). […] The plate was then further incubated at 37° C. in a humidified, 5% CO2 atmosphere for 4 hours. The absorbence of each well was then measured at 490 nm with an EL311 Microplate Autoreader (Bio-Tek Instruments). The mean absorbence for each treatment was then calculated, and the percent cytotoxicity was determined using the formula: [formula]
wherein AS represents the mean absorbence for each treatment and AC represents mean absorbence of the control treatment, i.e. cells not exposed to a conjugate.

B10.RIII mice = experiment: Treatment of collagen-induced arthritis (CIA) in B10.RIII mice; conditions: 2 mg/kg i.p.; for weight loss: alternate day treatment, observed for 84 days, PBS control about 5%±5%
Procedure: B10.RIII mice were injected with CII (200 μg) emulsified with complete Freund's adjuvant (CFA; 200 μg H37Ra). At day 21, mice were boosted with 100 μg of CII, randomized for CIA severity (13/group), and an alternate day treatment protocol was begun.

[1] = tested on: IL-2-induced proliferation of murine splenocytes; experiment: Inhibition of IL-2-induced proliferation of murine splenocytes (trypan blue viable cell count); type: cell-based, mouse; conditions: for specific binding to the IL-2 receptor: concluded from inhibition of IL-2-induced proliferation (Example 20)
Procedure: The in vitro effects of IL-2-receptor-targeted conjugates on IL-2-induced proliferation of murine splenocytes was examined.
A sterile splenocyte suspension was prepared as follows. Spleens were aseptically removed from male C57 BL/6 mice and placed in sterile tissue culture medium (RPMI plus 10% fetal calf serum). The spleens were teased apart and gently aspirated using a Pasteur pipet. The resulting spleen cell suspension was then filtered through sterile gauze and centrifuged at 150×g for 10 minutes at 20° C. […] After 30 seconds, an equal volume of tissue culture medium was added to the suspension to restore isotonicity. The cell suspension was again centrifuged at 150×g for 10 minutes at 20° C., and the resulting cell pellet was washed once using tissue culture medium. The washed cell pellet was finally resuspended in tissue culture medium, and cell density was adjusted to 5×10^6 cells/ml.
To the wells of a 96-well assay plate (Falcon MICROTEST III), 50 μl volumes of the splenocyte suspension were added. Competitor (conjugate) solutions were prepared and diluted in tissue culture medium and added to the wells of the assay plate in 25 μl volumes. To control wells, 25 μl of tissue culture medium was added. […] To the wells of the assay plate, 25 μl of either tissue culture medium or a solution containing recombinant human IL-2 (Pharmingen) at a concentration of 20 ng/ml (in tissue culture medium) was added.
Final results were quantitated as follows. Viable cell counts were performed for each separate well of the assay plate using the trypan blue exclusion method. Trypan blue is taken up and imparts a blue color to dead cells. Briefly, an aliquot of cells was twice diluted in 0.4% trypan blue stain (Sigma Chemical Co., St. Louis, Mo.) and incubated for 5 minutes before counting with a hemacytometer and an inverted microscope. The percentage of viable cells was calculated as the number of unstained cells per unit volume divided by the total number of stained and unstained cells×100. Cell counts for each duplicate set of wells were averaged, and cell proliferation was calculated as percent change from control cells using the following formula: [formula]
Percent inhibition of IL-2 induced proliferation was calculated as follows. [formula]

[2] = 48 hours incubation, MTS assay, compared by adriamycin concentration

Molecule | cytotoxicity against CTLL-2 T cells (FIG. 1) (mouse CTLL-2 cells; [2]) | weight loss (B10.RIII mice) | specific binding to the IL-2 receptor [1] | other results
COc1cccc2c1C(=O)c1c(O)c3c(c(O)c1C2=O)C[C@@](O)(C(=O)CO)C[C@@H]3O[C@H]1C[C@H](N)[C@H](O)[C@H](C)O1 [adriamycin, reference compound] |  |  |  | cytotoxicity against CTLL-2 T cells (FIG. 1) (mouse CTLL-2 cells): rapidly diffuses into the cells and kills them
PEG-Gly-Phe-Leu-Gly-ADR (GFLG; PEG and adriamycin conjugated; OTHER INFORMATION: Synthetic Construct) [PEG-GFLG-ADR, reference compound] | much lower than that required for PEG-GFLG-ADR | about 10%±8% |  | 
PEG-TT23-ADR ({PEG}-TGLNRILLGFLG-{ADR}; reading uncertain) | kills such CTLL-2 T cells at concentrations much lower than that required for PEG-GFLG-ADR; also recorded: requires higher concentrations of adriamycin than unconjugated adriamycin | about 3%±6% | specifically bind to the IL-2 receptor | arthritis severity (cumulative daily arthritis scores) (B10.RIII mice; alternate day treatment from day 21, observed for 84 days, compared to PBS control (P≦0.02)): significantly greater number of mice with only minimum arthritis
PEG-TT23: prepared according to Example 1 except that no adriamycin was conjugated; PEG coupled to peptide TT23 (SEQ ID NO:22) (TGLNRILLGFLG; not fully specified (N-terminus); also: PEG conjugate, attachment site not given here) |  |  | specifically binds to the IL-2 receptor | inhibition of IL-2-induced proliferation of murine splenocytes (FIG. 2) ([1]; recombinant human IL-2, 48 hours, trypan blue exclusion): very effectively inhibits proliferation
TGLNRILLGFLG [peptide TT23] |  |  |  | amount needed to achieve similar levels of inhibition, relative to PEG-TT23 ([1]; IL-2-induced proliferation of murine splenocytes): about 100 fold

Source: patent US6693083B2, “Conjugates targeted to the interleukin-2 receptor” (Watson Pharmaceuticals, Inc., priority 1997, dated 2004)
